In patent publication US20240158348A1, “HERBICIDAL CYCLIC AMIDES N-SUBSTITUTED WITH A HALOALKYLSULFONYLANILIDE GROUP” (FMC Corporation, priority 2021, published 2024):

Columns and labels:
Type in all cases: in vivo
[1] = test system: goosegrass (Eleusine indica); assay: Test C postemergence, goosegrass
Source text: (§1) Seeds of plant species selected from blackgrass (Alopecurus myosuroides), corn (Zea mays), foxtail, giant (giant foxtail, Setaria faberi), goosegrass (Eleusine indica), kochia (Bassia scoparia), oat, wild (wild oat, Avena fatua), pigweed, palmer (palmer amaranth, Amaranthus palmeri), ragweed (common ragweed, Ambrosia artemisiifolia), ryegrass, Italian (Italian ryegrass, Lolium multiflorum), soybean (Glycine max) and wheat (Triticum aestivum) were planted into a blend of loam soil and sand and treated preemergence with a directed soil spray using test chemicals formulated in a non-phytotoxic solvent mixture which included a surfactant.
(§2) At the same time, plants selected from these crop and weed species and also galium (catchweed bedstraw, Galium aparine) and horseweed (Erigeron canadensis) were planted in pots containing the same blend of loam soil and sand and treated with postemergence applications of test chemicals formulated in the same manner. Plants ranged in height from 2 to 10 cm and were in the one- to two-leaf stage for the postemergence treatment. Treated plants and untreated controls were maintained in a greenhouse for 10 or 12 days, after which time all treated plants were compared to untreated controls and visually evaluated for injury. Plant response ratings, summarized in Table A, are based on a 0 to 100 scale where 0 is no effect and 100 is complete control. A dash (-) response means no test result.

[2] = test system: goosegrass (Eleusine indica); assay: Test C preemergence, goosegrass; conditions: 0 is no effect, 100 is complete control
Source text: as §1, §2

[3] = test system: galium (catchweed bedstraw, Galium aparine); assay: Test C postemergence, galium
Source text: as §1, §2

corn (Zea mays) [4] = assay: Test C preemergence, corn; conditions: 0 is no effect, 100 is complete control
Source text: as §1, §2

[5] = test system: wheat (Triticum aestivum); assay: Test C postemergence, wheat; conditions: visual injury, 0 to 100 scale (0 no effect, 100 complete control)
Source text: as §1, §2

[6] = test system: blackgrass (Alopecurus myosuroides); assay: Test C preemergence, blackgrass; conditions: 0 is no effect, 100 is complete control
Source text: as §1, §2

[7] = test system: pigweed, palmer (palmer amaranth, Amaranthus palmeri); assay: Test C preemergence, palmer amaranth; conditions: 0 is no effect, 100 is complete control
Source text: as §1, §2

[8] = test system: ryegrass, Italian (Italian ryegrass, Lolium multiflorum); assay: Test C postemergence, Italian ryegrass; conditions: visual injury, 0 to 100 scale (0 no effect, 100 complete control)
Source text: as §1, §2

rice (Oryza sativa) = assay: Test D flooded paddy test, rice; parameters: key: 0 = no effect, 100 = complete control; conditions: 250 g ai/ha, Flood; applied to paddy water at 2-leaf stage; visual rating after 13 days; scale 0 (no effect) to 100 (complete control)
Method: (§3) Plant species in the flooded paddy test selected from barnyardgrass (Echinochloa crusgalli), ducksalad (Heteranthera limosa), rice (Oryza sativa), and sedge, umbrella (small-flower umbrella sedge, Cyperus difformis) were grown to the 2-leaf stage for testing. At time of treatment, test pots were flooded to 3 cm above the soil surface, treated by application of test compounds directly to the paddy water, and then maintained at that water depth for the duration of the test. Treated plants and controls were maintained in a greenhouse for 13 days, after which time all species were compared to controls and visually evaluated. Plant response ratings, summarized in Table B, are based on a scale of 0 to 100 where 0 is no effect and 100 is complete control. A dash (-) response means no test result.

[9] = test system: ducksalad (Heteranthera limosa); assay: Test D flooded paddy test, ducksalad; parameters: key: 0 = no effect, 100 = complete control; conditions: 250 g ai/ha, Flood; applied to paddy water at 2-leaf stage; visual rating after 13 days; scale 0 (no effect) to 100 (complete control)
Method: as §3

soybean (Glycine max) [10] = assay: Test C postemergence, soybean; conditions: visual injury, 0 to 100 scale (0 no effect, 100 complete control)
Source text: as §1, §2

[11] = test system: sedge, umbrella (small-flower umbrella sedge, Cyperus difformis); assay: Test D flooded paddy test, umbrella sedge; parameters: key: 0 = no effect, 100 = complete control; conditions: 250 g ai/ha, Flood; applied to paddy water at 2-leaf stage; visual rating after 13 days; scale 0 (no effect) to 100 (complete control)
Method: as §3

[12] = test system: blackgrass (Alopecurus myosuroides); assay: Test C postemergence, blackgrass; conditions: 125 g ai/ha Postemergence; 0 is no effect, 100 is complete control
kochia (Bassia scoparia) [13] = assay: Test C postemergence, kochia
Source text: as §1, §2

[14] = test system: foxtail, giant (giant foxtail, Setaria faberi); assay: Test C postemergence, giant foxtail
Source text: as §1, §2

[15] = test system: ragweed (common ragweed, Ambrosia artemisiifolia); assay: Test C postemergence, ragweed; conditions: visual injury, 0 to 100 scale (0 no effect, 100 complete control)
Source text: as §1, §2

[16] = test system: wheat (Triticum aestivum); assay: Test C preemergence, wheat; conditions: 0 is no effect, 100 is complete control
Source text: as §1, §2

[17] = test system: barnyardgrass (Echinochloa crusgalli); assay: Test D flooded paddy test, barnyardgrass; parameters: key: 0 = no effect, 100 = complete control; conditions: 250 g ai/ha, Flood; applied to paddy water at 2-leaf stage; visual rating after 13 days; scale 0 (no effect) to 100 (complete control)
Method: as §3

[18] = test system: ryegrass, Italian (Italian ryegrass, Lolium multiflorum); assay: Test C preemergence, Italian ryegrass; conditions: 0 is no effect, 100 is complete control
Source text: as §1, §2

[19] = test system: ragweed (common ragweed, Ambrosia artemisiifolia); assay: Test C preemergence, ragweed; conditions: 0 is no effect, 100 is complete control
Source text: as §1, §2

corn (Zea mays) [20] = assay: Test C postemergence, corn
Source text: as §1, §2

soybean (Glycine max) [21] = assay: Test C preemergence, soybean; conditions: 0 is no effect, 100 is complete control
Source text: as §1, §2

[22] = test system: foxtail, giant (giant foxtail, Setaria faberi); assay: Test C preemergence, giant foxtail; conditions: 0 is no effect, 100 is complete control
Source text: as §1, §2

kochia (Bassia scoparia) [23] = assay: Test C preemergence, kochia; conditions: 0 is no effect, 100 is complete control
Source text: as §1, §2

[24] = test system: blackgrass (Alopecurus myosuroides); assay: Test C postemergence, blackgrass; conditions: 31 g ai/ha Postemergence; visual injury, 0 to 100 scale (0 no effect, 100 complete control)
Source text: as §1, §2

[25] = test system: pigweed, palmer (palmer amaranth, Amaranthus palmeri); assay: Test C postemergence, palmer amaranth; conditions: visual injury, 0 to 100 scale (0 no effect, 100 complete control)
Source text: as §1, §2

[26] = test system: oat, wild (wild oat, Avena fatua); assay: Test C preemergence, wild oat; conditions: 0 is no effect, 100 is complete control
Source text: as §1, §2

[27] = test system: oat, wild (wild oat, Avena fatua); assay: Test C postemergence, wild oat
Source text: as §1, §2

[28] = 31 g ai/ha Postemergence, visual injury, 0 to 100 scale (0 no effect, 100 complete control)
[29] = 125 g ai/ha Postemergence, 0 is no effect, 100 is complete control

Cc1cc(C)c(N2CCC(OC3CC3)C2=O)cc1NS(=O)(=O)C(F)(F)F (single isomer, unassigned) [Compound 29]
100: Plant response rating (0 to 100 scale), Goosegrass ([2]; 31 g ai/ha Preemergence) | Plant response rating (0 to 100 scale), Goosegrass ([2]; 125 g ai/ha Preemergence) | Plant response rating (0 to 100 scale), Galium [3, 29] | Plant response rating (0 to 100 scale), Pigweed, Palmer ([7]; 31 g ai/ha Preemergence) | Plant response rating (0 to 100 scale), Pigweed, Palmer ([7]; 125 g ai/ha Preemergence) | Ryegrass, Italian plant response rating ([8]; 125 g ai/ha Postemergence) | Soybean plant response rating (soybean (Glycine max) [10]; 125 g ai/ha Postemergence) | Plant response rating (0 to 100 scale), Wheat ([16]; 125 g ai/ha Preemergence) | Plant response rating (0 to 100 scale), Ryegrass, Italian ([18]; 31 g ai/ha Preemergence) | Plant response rating (0 to 100 scale), Ryegrass, Italian ([18]; 125 g ai/ha Preemergence) | Plant response rating (0 to 100 scale), Soybean (soybean (Glycine max) [21]; 125 g ai/ha Preemergence) | Plant response rating (0 to 100 scale), Foxtail, Giant ([22]; 125 g ai/ha Preemergence) | Plant response rating (0 to 100 scale), Kochia (kochia (Bassia scoparia) [23]; 125 g ai/ha Preemergence)
45: Plant response rating, Ducksalad [9]
80: Galium plant response rating [3, 28] | Plant response rating (0 to 100 scale), Corn (corn (Zea mays) [4]; 31 g ai/ha Preemergence) | Ragweed plant response rating ([15]; 125 g ai/ha Postemergence) | Plant response rating (0 to 100 scale), Ragweed ([19]; 31 g ai/ha Preemergence) | Corn plant response rating (corn (Zea mays) [20]; [28]) | Plant response rating (0 to 100 scale), Oat, Wild [27, 29]
85: Plant response rating, Rice (rice (Oryza sativa))
60: Soybean plant response rating (soybean (Glycine max) [10]; 31 g ai/ha Postemergence) | Kochia plant response rating (kochia (Bassia scoparia) [13]; [28]) | Ragweed plant response rating ([15]; 31 g ai/ha Postemergence) | Blackgrass plant response rating [24] | Pigweed, Palmer plant response rating ([25]; 31 g ai/ha Postemergence)
95: Plant response rating, Sedge, Umbrella [11] | Plant response rating, Barnyardgrass [17]
90: Goosegrass plant response rating [1, 28] | Plant response rating (0 to 100 scale), Goosegrass [1, 29] | Plant response rating (0 to 100 scale), Corn (corn (Zea mays) [4]; 125 g ai/ha Preemergence) | Plant response rating (0 to 100 scale), Blackgrass ([6]; 31 g ai/ha Preemergence) | Plant response rating (0 to 100 scale), Blackgrass ([6]; 125 g ai/ha Preemergence) | Plant response rating (0 to 100 scale), Kochia (kochia (Bassia scoparia) [13]; [29]) | Foxtail, Giant plant response rating [14, 28] | Plant response rating (0 to 100 scale), Foxtail, Giant [14, 29] | Plant response rating (0 to 100 scale), Wheat ([16]; 31 g ai/ha Preemergence) | Plant response rating (0 to 100 scale), Ragweed ([19]; 125 g ai/ha Preemergence) | Plant response rating (0 to 100 scale), Corn (corn (Zea mays) [20]; [29]) | Plant response rating (0 to 100 scale), Soybean (soybean (Glycine max) [21]; 31 g ai/ha Preemergence) | Plant response rating (0 to 100 scale), Foxtail, Giant ([22]; 31 g ai/ha Preemergence) | Plant response rating (0 to 100 scale), Kochia (kochia (Bassia scoparia) [23]; 31 g ai/ha Preemergence) | Pigweed, Palmer plant response rating ([25]; 125 g ai/ha Postemergence) | Plant response rating (0 to 100 scale), Oat, Wild ([26]; 31 g ai/ha Preemergence) | Plant response rating (0 to 100 scale), Oat, Wild ([26]; 125 g ai/ha Preemergence)
70: Wheat plant response rating ([5]; 31 g ai/ha Postemergence) | Wheat plant response rating ([5]; 125 g ai/ha Postemergence) | Ryegrass, Italian plant response rating ([8]; 31 g ai/ha Postemergence) | Plant response rating (0 to 100 scale), Blackgrass [12]
20: Oat, Wild plant response rating [27, 28]
